Read-outs that look alike come from different tables or passages of the source.
Key:
DAT = conditions: intact cells; ref Chen et al., 2004b; cited from earlier work
D345N hDAT [1] = target: T1, D345N hDAT (Homo sapiens, UniProt Q01959, D345N); test: [3H]CFT saturation binding, intact HEK-293 cells stably expressing D345N DAT; conditions: observed, mean ± SE
W84L hDAT [2] = target: T2, W84L hDAT (Homo sapiens, UniProt Q01959, W84L); conditions: stably expressing cells, observed, mean ± SE
T2 sequence (Q01959 1-620 W84L): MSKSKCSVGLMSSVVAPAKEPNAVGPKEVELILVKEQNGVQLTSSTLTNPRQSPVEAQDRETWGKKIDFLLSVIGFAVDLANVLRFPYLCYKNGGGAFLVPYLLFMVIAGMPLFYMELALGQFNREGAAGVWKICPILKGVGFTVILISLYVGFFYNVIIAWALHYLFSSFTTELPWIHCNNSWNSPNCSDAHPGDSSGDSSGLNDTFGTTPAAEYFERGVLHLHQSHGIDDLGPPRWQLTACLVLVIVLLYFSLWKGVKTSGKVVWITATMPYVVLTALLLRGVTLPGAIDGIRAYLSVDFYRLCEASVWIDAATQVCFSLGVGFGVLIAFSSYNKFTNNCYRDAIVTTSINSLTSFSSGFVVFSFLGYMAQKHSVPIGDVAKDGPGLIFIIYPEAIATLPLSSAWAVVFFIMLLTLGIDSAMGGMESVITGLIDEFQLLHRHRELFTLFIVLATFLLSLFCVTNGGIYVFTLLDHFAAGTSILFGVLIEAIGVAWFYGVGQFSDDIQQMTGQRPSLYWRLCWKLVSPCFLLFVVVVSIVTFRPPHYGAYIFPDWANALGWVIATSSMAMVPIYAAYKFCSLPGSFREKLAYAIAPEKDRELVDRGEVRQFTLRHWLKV

WT hDAT [3] = target: T3, WT hDAT (Homo sapiens, UniProt Q01959); test: [3H]CFT saturation binding, intact HEK-293 cells stably expressing WT DAT; conditions: observed, mean ± SE
T3 sequence (Q01959 whole entry): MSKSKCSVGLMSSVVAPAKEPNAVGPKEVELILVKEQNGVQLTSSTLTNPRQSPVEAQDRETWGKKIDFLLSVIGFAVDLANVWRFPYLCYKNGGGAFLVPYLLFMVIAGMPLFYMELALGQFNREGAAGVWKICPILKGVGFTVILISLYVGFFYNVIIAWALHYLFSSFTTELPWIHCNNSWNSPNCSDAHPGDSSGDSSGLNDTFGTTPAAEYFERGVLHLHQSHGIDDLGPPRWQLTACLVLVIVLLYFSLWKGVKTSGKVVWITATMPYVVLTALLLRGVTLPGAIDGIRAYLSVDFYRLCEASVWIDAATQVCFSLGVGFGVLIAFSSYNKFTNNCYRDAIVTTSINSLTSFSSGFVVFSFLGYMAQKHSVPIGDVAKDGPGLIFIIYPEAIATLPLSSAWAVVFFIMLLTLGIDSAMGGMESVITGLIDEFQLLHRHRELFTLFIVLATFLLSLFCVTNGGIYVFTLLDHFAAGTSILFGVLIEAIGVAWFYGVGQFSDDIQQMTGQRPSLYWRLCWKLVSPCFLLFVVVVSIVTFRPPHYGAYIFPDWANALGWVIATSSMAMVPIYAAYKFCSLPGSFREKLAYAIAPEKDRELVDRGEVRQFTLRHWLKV

D436N hDAT [4] = target: T4, D436N hDAT (Homo sapiens, UniProt Q01959, D436N); test: [3H]CFT saturation binding, intact HEK-293 cells stably expressing D436N DAT; conditions: observed, mean ± SE
T4 sequence (Q01959 whole entry D436N): as the sequence (Q01959 whole entry) above, with D436N counted along it

[5] = tested on: WT + D345N hDAT (co-expressed); format: binding, human; conditions: transiently co-transfected 1:1, WT + D345N, observed
[6] = tested on: WT + W84L hDAT (co-expressed); format: binding, human; conditions: transiently co-transfected 1:1, WT + W84L, observed
[7] = tested on: W84L + D345N hDAT (co-expressed); format: binding, human; conditions: transiently co-transfected 1:1, W84L + D345N, observed
WT hDAT [8] = target: T3, WT hDAT; conditions: transiently singly transfected, observed, mean ± SE
[9] = tested on: WT + D313N hDAT (co-expressed); format: binding, human; conditions: transiently co-transfected 1:1, WT + D313N, observed
[10] = tested on: WT + D436N hDAT (co-expressed); format: binding, human; conditions: transiently co-transfected 1:1, WT + D436N, observed
D436N hDAT [11] = target: T4, D436N hDAT; test: [3H]CFT saturation binding, HEK-293 cells transiently transfected with D436N DAT; conditions: transiently singly transfected
[12] = tested on: WT + D436N hDAT (mixed cells); format: binding, human; conditions: observed upon mixing stable cells in equal volumes
[13] = tested on: W84L + D345N hDAT (mixed cells); format: binding, human; conditions: observed upon mixing stable cells in equal volumes
D345N hDAT [14] = target: T1, D345N hDAT; test: [3H]CFT saturation binding, HEK-293 cells transiently transfected with D345N DAT; conditions: transiently singly transfected
[15] = tested on: WT + W84L hDAT (mixed cells); test: [3H]CFT saturation binding, mixed cells singly stably expressing WT and W84L DAT; design: species or system human; conditions: observed upon mixing stable cells in equal volumes
D313N hDAT = D313N hDAT (Homo sapiens, UniProt Q01959, D313N); test: [3H]CFT saturation binding, HEK-293 cells transiently transfected with D313N DAT; conditions: transiently singly transfected
D313N hDAT, sequence (Q01959 whole entry D313N): as the sequence (Q01959 whole entry) above, with D313N counted along it

W84L hDAT [16] = target: T2, W84L hDAT; test: [3H]CFT saturation binding, HEK-293 cells transiently transfected with W84L DAT; conditions: transiently singly transfected

T1 sequence (Q01959 whole entry D345N): as the sequence (Q01959 whole entry) above, with D345N counted along it

## C[n+]1ccc(-c2ccccc2)cc1 [MPP^+]
DAT
  inhibition of intact cell [3H]CFT binding: completely inhibited

## COC(=O)[C@H]1[C@@H](c2ccc(F)cc2)C[C@@H]2CC[C@H]1N2C [[^3H]CFT, (−)-2-β-carbomethoxy-3-β-(4-fluorophenyl)tropane]
D345N hDAT [1]
  Bmax: 0.57 ± 0.13 (4) pmol/mg
W84L hDAT [2]
  Bmax: 0.75 ± 0.16 (8) pmol/mg
WT hDAT [3]
  Bmax: 0.55 ± 0.03 (6) pmol/mg
D436N hDAT [4]
  Bmax: 0.50± 0.08 (4) pmol/mg
[5]
  Kd: 48.2 ± 10.3 nM
[6]
  Kd: 4.4 ± 0.77 nM
[7]
  Kd: 6.75 ± 3.22 nM
WT hDAT [8]
  Bmax: 0.79 ± 0.21 (4) pmol/mg
[9]
  Kd: 6.42 ± 1.1 nM
[10]
  Kd: 103 ± 5 nM
D436N hDAT [11]
  Bmax: 0.94 ± 0.04 (3) pmol/mg
[12]
  Kd: 25.9 ± 4 nM
[13]
  Kd: 2.01 ± 0.67 nM
D345N hDAT [14]; set paired with W84L (n=6)
  Bmax: 0.51 ± 0.12 (6) pmol/mg
D345N hDAT [14]; set paired with WT (n=4)
  Bmax: 0.62 ± 0.10 (4) pmol/mg
[15]
  Kd: 5.33 ± 0.95 nM
D313N hDAT
  Bmax: 0.41± 0.03 (4) pmol/mg
W84L hDAT [16]; set paired with D345N (n=7)
  Bmax: 0.94 ± 0.13 (7) pmol/mg
W84L hDAT [16]; set paired with WT (n=5)
  Bmax: 0.82 ± 0.14 (5) pmol/mg

From PMC4393779 (Journal of neurochemistry, 2015)
